Assay results published in patent publication US10544137B2, “PI3K inhibitor, and pharmaceutically acceptable salt, polycrystalline form, and application thereof” (SHANGHAI HAIYAN PHARMACEUTICAL TECHNOLOGY CO., LTD., priority 2016, dated 2020).
In brackets after ≈: the same amount, converted by molar mass.

How the values were obtained:
Format in all cases: physicochemical
[1] = Solid phase stability experiment (sealed at 60° C., HPLC purity); settings: for solid phase stability (in words): 60° C., at 7 days and 21 days
Description: 5 mg of samples were weighed and sealed at 60° C., respectively. Another set of samples were sealed and stored at −20° C. as a control at the same time. All samples were characterized by HPLC at 7 days and 21 days to detect changes in purity.

[2] = Hygroscopicity experiment (DVS); settings: for hygroscopicity (in words): DVS, 25° C.; for moisture absorbed: humidity increased to 80% RH at 25° C.
From the text: The Dynamic Vapor Sorption (DVS) curve was acquired on the DVS Intrinsic of Surface Measurement Systems.
The DVS test results of the crystal form A and the crystal form B-1 were shown in FIG. 26 and FIG. 27, respectively.
The DVS test results of the crystal form C, crystal form D-2, crystal form E, and crystal form F were shown in FIG. 28, FIG. 29, FIG. 30, and FIG. 31.

[3] = Solubility experiment in 0.1M HCl, buffers and water; settings: for Solubility (mg/mL) 0.1M HCl / Solubility (mg/mL) pH 4.5 / Solubility (mg/mL) pH 6.8 / Solubility (mg/mL) H2O: ambient temperature; for Solubility (mg/mL) pH 4.5: pH 4.5 buffer; for Solubility (mg/mL) pH 6.8: pH 6.8 buffer; for solubility in water compared with the free base (in words) / Solubility (mg/mL) H2O: water
Description: The solubilities of the following four kinds of salt and free base sample in 0.1M HCl, pH 4.5 buffer, pH 6.8 buffer, and water were tested at ambient temperature. In the test, the calibration curves of free base and four kinds of salt were plotted. 3 mg of solid samples of free base and four kinds of salt were weighed, respectively, and then 1 ml of the solvent was added, centrifuged after 30 min ultrasound. The supernatant was taken, and injected through the membrane, and the solubility was tested.

[4] = Solubility of crystal form I in common solvents; settings: ambient temperature; for solubility: thermodynamic from solid
Description: The solubility of the crystal form I in 11 common solvents at ambient temperature was tested. In the experiment, the crystal form I was formulated into standard solutions of different concentrations using 50% acetonitrile as solvent according to the following table, and injected to the HPLC instrument. The peak area was recorded and the standard curve was plotted, and the curve equation: y=11.30762x, R^2=0.99998, which has a good linear correlation in a range of 4.9 μg/ml˜499 μg/ml was obtained. 10-80 mg of crystal form I was weighed into 0.5-10 ml of different solutions in the following table to prepare a saturated solution, sonicated for 3-5 min, dispersed evenly and then taken out, centrifuged at 12000 rpm for 5 min. The supernatant was drawn and diluted at a certain multiple, injected to the HPLC, the peak area was recorded, the sample concentration was calculated, and the pH of undiluted samples was determined.

Compound: CS(=O)(=O)C1(c2cc(-c3cnc(N)cc3Cl)nc(N3CCOCC3)n2)CC1 [crystal form A]
- solid phase stability (in words) [1]: good stability
- Purity (%) ([1]; 60° C.-0 day): 99.73%
- Total impurities (%) ([1]; 60° C.-0 day): 0.27%
- Purity (%) ([1]; 60° C.-7 days, sealed): 99.78%
- Total impurities (%) ([1]; 60° C.-7 days, sealed): 0.22%
- Purity (%) ([1]; 60° C.-21 days, sealed): 99.75%
- Total impurities (%) ([1]; 60° C.-21 days, sealed): 0.25%
- hygroscopicity (in words) [2]: slightly hygroscopic
- Solubility (mg/mL) 0.1M HCl [3]: >2.744 mg/mL
- Solubility (mg/mL) pH 4.5 [3]: 0.020 mg/mL
- Solubility (mg/mL) pH 6.8 [3]: 0.012 mg/mL
- solubility in water compared with the free base (in words) [3]: obviously improved
- Solubility (mg/mL) H2O [3]: 1.063 mg/mL (≈ 2.59 mM)

Compound: CS(=O)(=O)C1(c2cc(-c3cnc(N)cc3Cl)nc(N3CCOCC3)n2)CC1 [crystal form B-1]
- solid phase stability (in words) [1]: good stability
- Purity (%) ([1]; 60° C.-0 day): 99.74%
- Total impurities (%) ([1]; 60° C.-0 day): 0.26%
- Purity (%) ([1]; 60° C.-7 days, sealed): 99.50%
- Total impurities (%) ([1]; 60° C.-7 days, sealed): 0.50%
- Purity (%) ([1]; 60° C.-21 days, sealed): 99.74%
- Total impurities (%) ([1]; 60° C.-21 days, sealed): 0.26%
- hygroscopicity (in words) [2]: slightly hygroscopic
- Solubility (mg/mL) 0.1M HCl [3]: >2.488 mg/mL
- Solubility (mg/mL) pH 4.5 [3]: 0.026 mg/mL
- Solubility (mg/mL) pH 6.8 [3]: 0.012 mg/mL
- solubility in water compared with the free base (in words) [3]: obviously improved
- Solubility (mg/mL) H2O [3]: 0.946 mg/mL (≈ 2.31 mM)

Compound: CS(=O)(=O)C1(c2cc(-c3cnc(N)cc3Cl)nc(N3CCOCC3)n2)CC1 [crystal form C]
- solid phase stability (in words) [1]: good stability
- Purity (%) ([1]; 60° C.-0 day): 99.73%
- Total impurities (%) ([1]; 60° C.-0 day): 0.27%
- Purity (%) ([1]; 60° C.-7 days, sealed): 99.74%
- Total impurities (%) ([1]; 60° C.-7 days, sealed): 0.26%
- Purity (%) ([1]; 60° C.-21 days, sealed): 99.75%
- Total impurities (%) ([1]; 60° C.-21 days, sealed): 0.25%
- hygroscopicity (in words) [2]: almost no hygroscopicity
- moisture absorbed [2]: 0.17%
- Solubility (mg/mL) 0.1M HCl [3]: 1.875 mg/mL (≈ 4.57 mM)
- Solubility (mg/mL) pH 4.5 [3]: 0.027 mg/mL
- Solubility (mg/mL) pH 6.8 [3]: 0.010 mg/mL
- solubility in water compared with the free base (in words) [3]: obviously improved
- Solubility (mg/mL) H2O [3]: 0.174 mg/mL (≈ 0.424 mM)

Compound: CS(=O)(=O)C1(c2cc(-c3cnc(N)cc3Cl)nc(N3CCOCC3)n2)CC1 [crystal form D-2]
- solid phase stability (in words) [1]: good stability
- Purity (%) ([1]; 60° C.-0 day): 98.37%
- Total impurities (%) ([1]; 60° C.-0 day): 1.63%
- Purity (%) ([1]; 60° C.-7 days, sealed): 98.22%
- Total impurities (%) ([1]; 60° C.-7 days, sealed): 1.78%
- Purity (%) ([1]; 60° C.-21 days, sealed): 98.25%
- Total impurities (%) ([1]; 60° C.-21 days, sealed): 1.75%
- hygroscopicity (in words) [2]: almost no hygroscopicity
- moisture absorbed [2]: 0.14%
- Solubility (mg/mL) 0.1M HCl [3]: 1.195 mg/mL (≈ 2.92 mM)
- Solubility (mg/mL) pH 4.5 [3]: 0.031 mg/mL
- Solubility (mg/mL) pH 6.8 [3]: 0.013 mg/mL
- solubility in water compared with the free base (in words) [3]: slightly improved
- Solubility (mg/mL) H2O [3]: 0.023 mg/mL (≈ 0.0561 mM)

Compound: CS(=O)(=O)C1(c2cc(-c3cnc(N)cc3Cl)nc(N3CCOCC3)n2)CC1 [crystal form E]
- hygroscopicity (in words) [2]: almost no hygroscopicity
- moisture absorbed [2]: 0.12%

Compound: CS(=O)(=O)C1(c2cc(-c3cnc(N)cc3Cl)nc(N3CCOCC3)n2)CC1 [crystal form F]
- hygroscopicity (in words) [2]: almost no hygroscopicity
- moisture absorbed [2]: 0.26%

Compound: CS(=O)(=O)C1(c2cc(-c3cnc(N)cc3Cl)nc(N3CCOCC3)n2)CC1 [crystal form I, 4-chloro-5-(6-(1-(methylsulfonyl)cyclopropyl)-2-morpholinopyrimidin-4-yl)pyridin-2-amine]
- hygroscopicity (in words) [2]: almost no hygroscopicity
- water absorbed ([2]; humidity increased to 90% RH at 25° C.): 0.084%
- Concentration ([4]; 50% acetonitrile): 10998 µg/mL
- Concentration ([4]; acetone): 28464 µg/mL
- Concentration ([4]; acetonitrile): 13724 µg/mL
- solubility ([4]; aqueous with cosolvent or surfactant or cyclodextrin, 50% acetonitrile): 11000 µg/mL (≈ 26.8 mM)
- Concentration ([4]; ethanol): 4680 µg/mL
- Concentration ([4]; ethyl acetate): 12441 µg/mL
- Concentration ([4]; isopropanol): 1837 µg/mL
- Concentration ([4]; methanol): 9459 µg/mL
- Concentration ([4]; methyl tert-butyl ether): 1044 µg/mL
- solubility ([4]; organic solvent or mixture, acetone): 28500 µg/mL (≈ 69.4 mM)
- solubility ([4]; organic solvent or mixture, acetonitrile): 13700 µg/mL (≈ 33.5 mM)
- solubility ([4]; organic solvent or mixture, ethanol): > 4680 µg/mL
- solubility ([4]; organic solvent or mixture, ethyl acetate): 12400 µg/mL (≈ 30.4 mM)
- solubility ([4]; organic solvent or mixture, isopropanol): > 1840 µg/mL
- solubility ([4]; organic solvent or mixture, methanol): > 9460 µg/mL
- solubility ([4]; organic solvent or mixture, methyl tert-butyl ether): > 1040 µg/mL
- solubility ([4]; organic solvent or mixture, tetrahydrofuran): 78100 µg/mL (≈ 191 mM)
- Concentration ([4]; tetrahydrofuran): 78135 µg/mL
- solubility ([4]; water): 185 µg/mL (≈ 0.451 mM)
- Concentration ([4]; water): 185 µg/mL
